In patent publication US6653455B1, “Crystallization of doxorubicin hydrochloride” (Mercian Corporation, priority 1998, dated 2003):
Where a name gives a salt, the structure may show the parent alone.

assay: Average particle diameter, microscopic method (Heywood circle-corresponding diameter); format: physicochemical; conditions: 10 typical crystals on photograph, hydrochloride
Excerpt: The average particle diameter is shown by a diameter of a circle having the same area as an injected area of the particle, a so-called Heywood diameter (circle-corresponding diameter) according to a microscopic method (injected image). A small amount of the crystals was put on a slide glass, and 1 to 2 drops of a hydrophilic surfactant (sesquioleic acid sorbitan) were fallen thereon to disperse them. It was photographed by means of a polarization microscope (photographing lens: 3.3 magnifications, objective lens: 20 magnifications) equipped with a photographing device. Optional 10 pieces of the typical crystals were selected on the photograph to measure a long diameter and a short diameter thereof An (projected) area of the particle was shown by long diameter×short diameter, and the particle diameter was shown by a diameter of a circle having the same area as that obtained above.

Question: With `COc1cccc2c1C(=O)c1c(O)c3c(c(O)c1C2=O)C[C@@](O)(C(=O)CO)C[C@@H]3O[C@H]1C[C@H](N)[C@H](O)[C@H](C)O1` [Example 55, doxorubicin hydrochloride] as the compound, how does the Average particle diameter read?
Answer: The Average particle diameter was 24 μm.

Question: With `COc1cccc2c1C(=O)c1c(O)c3c(c(O)c1C2=O)C[C@@](O)(C(=O)CO)C[C@@H]3O[C@H]1C[C@H](N)[C@H](O)[C@H](C)O1` [Example 51, doxorubicin hydrochloride] as the compound, how does the Average particle diameter read?
Answer: Its Average particle diameter is 73 μm.

Question: With `COc1cccc2c1C(=O)c1c(O)c3c(c(O)c1C2=O)C[C@@](O)(C(=O)CO)C[C@@H]3O[C@H]1C[C@H](N)[C@H](O)[C@H](C)O1` [Example 58, doxorubicin hydrochloride] as the compound, how does the Average particle diameter read?
Answer: The Average particle diameter was under 4 μm.

Question: Which Average particle diameter does the source give for `COc1cccc2c1C(=O)c1c(O)c3c(c(O)c1C2=O)C[C@@](O)(C(=O)CO)C[C@@H]3O[C@H]1C[C@H](N)[C@H](O)[C@H](C)O1` [Example 57, doxorubicin hydrochloride] here?
Answer: Its Average particle diameter is 35 μm.

Question: Which Average particle diameter does the source give for `COc1cccc2c1C(=O)c1c(O)c3c(c(O)c1C2=O)C[C@@](O)(C(=O)CO)C[C@@H]3O[C@H]1C[C@H](N)[C@H](O)[C@H](C)O1` [Example 2, doxorubicin hydrochloride] here?
Answer: The Average particle diameter was under 4 μm.

Question: Which Average particle diameter does the source give for `COc1cccc2c1C(=O)c1c(O)c3c(c(O)c1C2=O)C[C@@](O)(C(=O)CO)C[C@@H]3O[C@H]1C[C@H](N)[C@H](O)[C@H](C)O1` [Example 46, doxorubicin hydrochloride] here?
Answer: Its Average particle diameter is 86 μm.

assay: Hygroscopicity, cup method (weight change); format: physicochemical; conditions: weight-increasing rate, 25° C., 50 to 60% RH, 15 minutes; crystals dried at 40° C. under vacuum; hydrochloride
Protocol: Determined by the following cup method. To be specific, about 15 to 20 mg of the sample was put in a cylindrical cup having a diameter of 6 mm and a depth of 6 mm and left standing at a fixed temperature (25° C.) and relative humidity (50 to 60% RH) for 15 minutes to measure a weight change, whereby the hygroscopicity was evaluated.
In the following respective examples, a weight-increasing rate of 0.40% or more is shown by an evaluation criterion that the hygroscopicity is large (−); a weight-increasing rate of 0.20% or more and less than 0.40% is shown by an evaluation criterion that the hygroscopicity is ;intermediate (±); and a weight-increasing rate of less than 0.20% is shown by an evaluation criterion that the hygroscopicity is small: (+).

Question: For `COc1cccc2c1C(=O)c1c(O)c3c(c(O)c1C2=O)C[C@@](O)(C(=O)CO)C[C@@H]3O[C@H]1C[C@H](N)[C@H](O)[C@H](C)O1` [Example 55, doxorubicin hydrochloride], which Hygroscopicity is on record?
Answer: Its Hygroscopicity is “+ (a weight-increasing rate of less than 0.20% is shown by an evaluation criterion that the hygroscopicity is small: (+))”.

Question: With `COc1cccc2c1C(=O)c1c(O)c3c(c(O)c1C2=O)C[C@@](O)(C(=O)CO)C[C@@H]3O[C@H]1C[C@H](N)[C@H](O)[C@H](C)O1` [Example 51, doxorubicin hydrochloride] as the compound, how does the Hygroscopicity read?
Answer: The Hygroscopicity was “+ (a weight-increasing rate of less than 0.20% is shown by an evaluation criterion that the hygroscopicity is small: (+))”.

Question: Which Hygroscopicity does the source give for `COc1cccc2c1C(=O)c1c(O)c3c(c(O)c1C2=O)C[C@@](O)(C(=O)CO)C[C@@H]3O[C@H]1C[C@H](N)[C@H](O)[C@H](C)O1` [Example 58, doxorubicin hydrochloride] here?
Answer: The Hygroscopicity was “− (a weight-increasing rate of 0.40% or more is shown by an evaluation criterion that the hygroscopicity is large (−))”.

Question: For `COc1cccc2c1C(=O)c1c(O)c3c(c(O)c1C2=O)C[C@@](O)(C(=O)CO)C[C@@H]3O[C@H]1C[C@H](N)[C@H](O)[C@H](C)O1` [Example 57, doxorubicin hydrochloride], which Hygroscopicity is on record?
Answer: Its Hygroscopicity is “± (a weight-increasing rate of 0.20% or more and less than 0.40% is shown by an evaluation criterion that the hygroscopicity is ;intermediate (±))”.

Question: Which Hygroscopicity does the source give for `COc1cccc2c1C(=O)c1c(O)c3c(c(O)c1C2=O)C[C@@](O)(C(=O)CO)C[C@@H]3O[C@H]1C[C@H](N)[C@H](O)[C@H](C)O1` [Example 2, doxorubicin hydrochloride] here?
Answer: The Hygroscopicity was “− (a weight-increasing rate of 0.40% or more is shown by an evaluation criterion that the hygroscopicity is large (−))”.

Question: With `COc1cccc2c1C(=O)c1c(O)c3c(c(O)c1C2=O)C[C@@](O)(C(=O)CO)C[C@@H]3O[C@H]1C[C@H](N)[C@H](O)[C@H](C)O1` [Example 46, doxorubicin hydrochloride] as the compound, how does the Hygroscopicity read?
Answer: Its Hygroscopicity is “+ (a weight-increasing rate of less than 0.20% is shown by an evaluation criterion that the hygroscopicity is small: (+))”.

assay: Solubility test (dissolving time in water); format: physicochemical; conditions: 50 mg sample in 5 ml water, 25° C., about 600 rounds/minute stirring, time until completely dissolved; hydrochloride
Protocol: A beaker of 20 ml (minor diameter: 30 mm) was charged with 5 ml of water and then 50 mg of a DOX.HCl crystal sample, and the sample was stirred at 25° C. and about 600 rounds/minute by means of a magnetic stirrer (diameter 6 mm×length 10 mm). Time consumed until the sample was completely dissolved was measured wile observing the dissolving state every 30 seconds with naked eyes.
The solubility test described above was carried out for a DXR.USP standard product (Lot J) (average particle diameter: 28 μm) as comparison and Examples 2, 46,51, 55, 56, 57 and 58, and the results thereof are shown in Table III.

Question: For `COc1cccc2c1C(=O)c1c(O)c3c(c(O)c1C2=O)C[C@@](O)(C(=O)CO)C[C@@H]3O[C@H]1C[C@H](N)[C@H](O)[C@H](C)O1` [Example 55, doxorubicin hydrochloride], which Dissolving time is on record?
Answer: The Dissolving time was 1.5 to 2 min.

Question: With `COc1cccc2c1C(=O)c1c(O)c3c(c(O)c1C2=O)C[C@@](O)(C(=O)CO)C[C@@H]3O[C@H]1C[C@H](N)[C@H](O)[C@H](C)O1` [Example 51, doxorubicin hydrochloride] as the compound, how does the Dissolving time read?
Answer: Its Dissolving time is 1.5 to 2 min.

Question: With `COc1cccc2c1C(=O)c1c(O)c3c(c(O)c1C2=O)C[C@@](O)(C(=O)CO)C[C@@H]3O[C@H]1C[C@H](N)[C@H](O)[C@H](C)O1` [Example 58, doxorubicin hydrochloride] as the compound, how does the Dissolving time read?
Answer: The Dissolving time was 14.5 to 15 min.

Question: For `COc1cccc2c1C(=O)c1c(O)c3c(c(O)c1C2=O)C[C@@](O)(C(=O)CO)C[C@@H]3O[C@H]1C[C@H](N)[C@H](O)[C@H](C)O1` [Example 57, doxorubicin hydrochloride], which Dissolving time is on record?
Answer: The Dissolving time was 1.5 to 2 min.

Question: Which Dissolving time does the source give for `COc1cccc2c1C(=O)c1c(O)c3c(c(O)c1C2=O)C[C@@](O)(C(=O)CO)C[C@@H]3O[C@H]1C[C@H](N)[C@H](O)[C@H](C)O1` [Example 2, doxorubicin hydrochloride] here?
Answer: Its Dissolving time is 4 to 4.5 min.

Question: For `COc1cccc2c1C(=O)c1c(O)c3c(c(O)c1C2=O)C[C@@](O)(C(=O)CO)C[C@@H]3O[C@H]1C[C@H](N)[C@H](O)[C@H](C)O1` [Example 46, doxorubicin hydrochloride], which Dissolving time is on record?
Answer: Its Dissolving time is 1.5 to 2 min.
